From PMC10571761, “Transgenic Mice Expressing Functional TCRs Specific to Cardiac Myhc-α 334–352 on Both CD4 and CD8 T Cells Are Resistant to the Development of Myocarditis on C57BL/6 Genetic Background” (Cells, 2023)
Peptide text beside a SMILES is read from it.

Tests used:
IA^b = biological target: T1, IA^b (Mus musculus, UniProt P14434+P14483); assay: IA^b binding assay (DELFIA competition); details: soluble thrombin-cleaved IA^b (0.35 µg); competitor 0.00001 µM to 100 µM; biotinylated OVA 323–339 (50 µM) reference; pH 7.0 phosphate; overnight RT; fluorescence 340/615 nm; three to five experiments, three replicates each; read-out: IC50 value, binding to IA^b molecules
T1 construct: IA^b constructs were designed to contain the extracellular domains of IA^b-α and IA^b-β; CLIP 88–102 ([…]) with thrombin site (cleaved yes); made in house; host or cells: Sf9 insect cells (baculovirus)
T1 sequence (P14434 24-218 limits assumed): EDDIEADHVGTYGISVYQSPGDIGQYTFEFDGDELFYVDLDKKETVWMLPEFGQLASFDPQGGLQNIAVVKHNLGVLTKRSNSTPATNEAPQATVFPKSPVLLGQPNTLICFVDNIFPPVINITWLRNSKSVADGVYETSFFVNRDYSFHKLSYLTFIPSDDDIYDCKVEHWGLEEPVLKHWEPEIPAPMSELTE
T1 sequence (P14483 28-226 limits assumed): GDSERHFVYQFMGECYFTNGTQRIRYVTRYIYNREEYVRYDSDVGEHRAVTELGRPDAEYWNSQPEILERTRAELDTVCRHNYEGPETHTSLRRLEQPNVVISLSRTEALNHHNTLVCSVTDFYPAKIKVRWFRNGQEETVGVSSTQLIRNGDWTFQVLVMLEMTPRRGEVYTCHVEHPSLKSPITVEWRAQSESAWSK
Source text: To determine the binding affinity of Myhc-α 334–352 to IA^b, soluble IA^b molecules were expressed similarly to the IA^k molecule. Briefly, IA^b constructs were designed to contain the extracellular domains of IA^b-α and IA^b-β [43]. The IA^b-β construct consisted of the class II-associated invariant chain peptide (CLIP) 88–102 (VSQMRMATPLLMRPM) and thrombin site to release the CLIP [44]. After expressing the IA^b molecules in baculovirus using Sf9 cells and purifying on an anti-IA^b affinity column (clone, M5/114) (BioXCell, West Lebanon, NH, USA), they were cleaved with thrombin to obtain empty IA^b molecules. […] In addition, anti-IA^b (10 µg/mL) was coated onto white fluorescence 96-well plates (Nunc, Rochester, NY, USA) in 0.2 M sodium phosphate buffer, pH 6.8, overnight, followed by washing and blocking with 2% casein for 2 h at 37 °C. […] Europium-labeled streptavidin was added (1 µg/mL) in dissociation-enhanced lanthanide fluorescence immunoassay (DELFIA®) buffer and then the DELFIA®-enhancement solution (Perkin Elmer, Waltham, MA, USA). Fluorescence intensities were measured at wavelengths of 340/615 nm using a VICTOR® Multilabel Plate Reader (Perkin Elmer), and IC50 values were then determined. […]

IA^k = biological target: T2, IA^k (Mus musculus, UniProt P01910+P06343); assay: IA^k binding assay (DELFIA competition); details: soluble thrombin-cleaved IA^k; reference peptide biotinylated HEL 46–61; overnight RT; europium-labeled streptavidin, fluorescence 340/615 nm; mean ± SEM from three to five experiments, three replicates each; read-out: IC50 value, binding to IA^k molecules
T2 construct: After expressing soluble IA^k and IA^b monomers in a baculovirus system; CLIP peptide, released by thrombin cleavage (cleaved yes); made in house; host or cells: baculovirus system (insect cells; Sf9 is stated only for IA^b)

A/J mice = details: immunization with CFA; cited from earlier work
Source text: Histologically, the disease process can be classified into lymphocytic, neutrophilic, eosinophilic, granulomatous, and giant cell myocarditis. Of these, lymphocytic myocarditis generally occurs with viral infections. Although most myocarditis-affected individuals may spontaneously recover, up to 20% of them can develop DCM, in which autoimmunity is suspected as an underlying mechanism. […] The immunogenic epitopes can be promiscuous in that they can bind multiple MHC alleles.

CD4 and CD8 T cells = details: cited from earlier work
Source text: In that direction, we sought to create TCR Tg mice specific to Myhc-α 334–352 and made a few observations. […] However, expression of Myhc-α 334–352-specific TCRs in both CD4 and CD8 T cells was not expected. To our knowledge, our Tg model is only the second such example to have been reported, with the earlier example being 1C6 Tg mice specific to myelin olig ...

BALB/c mice = details: immunization with CFA; cited from earlier work
Source text: (§1) Histologically, the disease process can be classified into lymphocytic, neutrophilic, eosinophilic, granulomatous, and giant cell myocarditis. Of these, lymphocytic myocarditis generally occurs with viral infections. Although most myocarditis-affected individuals may spontaneously recover, up to 20% of them can develop DCM, in which autoimmunity is suspected as an underlying mechanism. Although autoantibodies for various antigens—such as cardiac myosin (Myhc), adenine nucleotide translocator (ANT), branched-chain α-ketoacid dehydrogenase kinase (BCKDk), sarcoplasmic/end ...

lymphocytes from Tg mice = assay: Cytokine analysis, lymphocytes of immunized Tg mice; assay type: cell-based, TCR transgenic mice on C57BL/6 background; details: control peptide, two days
Experimental: Myhc-α 334–352 immunizations involved peptide/CFA emulsions containing Mycobacterium tuberculosis H37RA extract (Difco Laboratories, Detroit, MI, USA) with a final concentration of 5 mg/mL. The emulsions were administered subcutaneously (100 µg/mouse) in the inguinal and sternum regions on days 0 and 7. In some experiments, animals received emulsions in the left and right shoulders and on the right and left sides of the hip regions in split doses. Additionally, pertussis toxin (List Biological Laboratories, Campbell, CA, USA) was administered to animals intraperitoneally (100 ng/mouse) on days 0 and 2 after the first immunization.
Lymphocytes were obtained from wild-type (Wt) or Tg mice immunized with or without Myhc-α 334–352. […] Cytokines were analyzed using the LEGENDplex Murine Th cytokine Panel (12-plex or 13-plex; BioLegend). […] Beads were acquired by flow cytometry (FACSCalibur™), and concentrations of cytokines were determined using the LEGENDplex™ data analysis software suite (BioLegend). […]
Figure 6 Tg T cells produce mainly Th1 and Th17 cytokines. […] Cells were stimulated with or without Myhc-α 334–352 or OVA 323–339 (control) at the indicated concentrations for two days, and the culture supernatants were evaluated by cytokine bead array analysis except for IL-4, which was measured by ELISA. […]

rats = details: immunization with CFA; cited from earlier work
Source text: as §1

[1] = biological target: T3, cardiac myosin heavy chain (Myhc)-α peptide on I-Ak (mouse); assay: multimer staining
T3 peptide: DSAFDVLSFTAEEKAGVYK

Molecule: CC(C)C[C@H](NC(=O)[C@@H](NC(=O)[C@H](CC(=O)O)NC(=O)[C@H](Cc1ccccc1)NC(=O)[C@H](C)NC(=O)[C@H](CO)NC(=O)[C@@H](N)CC(=O)O)C(C)C)C(=O)N[C@@H](CO)C(=O)N[C@@H](Cc1ccccc1)C(=O)N[C@H](C(=O)N[C@@H](C)C(=O)N[C@@H](CCC(=O)O)C(=O)N[C@@H](CCC(=O)O)C(=O)N[C@@H](CCCCN)C(=O)N[C@@H](C)C(=O)NCC(=O)N[C@H](C(=O)N[C@@H](Cc1ccc(O)cc1)C(=O)N[C@@H](CCCCN)C(=O)O)C(C)C)[C@@H](C)O [Myhc-α 334–352] (H-DSAFDVLSFTAEEKAGVYK-OH)
- IC50 (IA^b): > 100 µM
- IC50 (IA^k): 37.8 ± 10.3 µM

Molecule: cTNI 105–122: cardiac troponin I 105–122 epitope (VDKVDEERYDVEAKVTKN; UniProt P48787 105-122, looked up, fragment)
- myocarditis induction in A/J mice (in words) (A/J mice): myocarditogenic

Molecule: Myhc-α 338–348: truncated version of Myhc-α 334–352 (DVLSFTAEEKA; UniProt Q02566 338-348, looked up, fragment)
- T cell stimulation by truncated peptide (in words) (CD4 and CD8 T cells; A/J): could stimulate both CD4 and CD8 T cells

Molecule: Myhc-α 614–643: myocarditogenic epitope in BALB/c mice (SLKLMATLFSTYASADTGDSGKGKGGKKKG; UniProt Q02566 614-643, looked up, fragment)
- myocarditis induction in BALB/c mice (in words) (BALB/c mice): myocarditogenic

Molecule: MOG 35–55: myelin oligodendrocyte glycoprotein 35–55 (GPGYPIRALVGDEAELPCRIS; UniProt Q61885 35-55, looked up, fragment)
- T cell stimulation (in words) (CD4 and CD8 T cells): stimulate both cell types

Molecule: ISQAVHAAHAEINEAGR [OVA 323–339]
- cytokine responses (in words) (lymphocytes from Tg mice): lack of cytokine responses

Molecule: SERCA2a 971–990: sarcoplasmic/endoplasmic reticulum Ca2^+ adenosine triphosphatase 2a 971–990 epitope (KISLPVILMDETLKFVARNY; UniProt O55143 971-990, looked up, fragment)
- myocarditis induction in A/J mice (in words) (A/J mice): myocarditogenic

Molecule: β1AR 181–200: β1 adrenergic receptor 181–200 epitope (TVWAISALVSFLPILMHWWR; UniProt P34971 181-200, looked up, fragment)
- myocarditis induction in A/J mice (in words) (A/J mice): myocarditogenic

Molecule: Myhc-α 1304–1320: myocarditogenic epitope in rats (RGKLSYTQQMEDLKRQL; UniProt P02563 1304-1320, looked up, fragment)
- myocarditis induction in rats (in words) (rats): myocarditogenic

Molecule: ANT 21–40: adenine nucleotide translocator 21–40 epitope (VSKTAVAPIERVKLLLQVQH; UniProt P48962 21-40, looked up, fragment)
- myocarditis induction in A/J mice (in words) (A/J mice): myocarditogenic

B1: Myhc-α 334–352-specific TCR of T cell hybridoma clone C33 (transgenic TCR of the Myhc-α 334–352 TCR Tg mice) (TCR)
alpha TRAV14-1*02 TRAJ42*01 CDR3: CAASAEGSNAKLTF
beta TRBV2*01 TRBJ2-5*01 CDR3: CASSQSLGQDTQYF
- binding result [1]: recognises
